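Five concentrations, 48 hours, 96-well plates. At the GI50, growth is halved. Definition used: TGI = concentration required for complete inhibition of growth.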
Tests used:
Assay in all cases: growth of human tumour cells (NCI), 48 h
786-0 renal = system: 786-0 renal
A498 renal = system: A498 renal
A549 NSCLC = system: A549 NSCLC
ACHN renal = system: ACHN renal
BT-549 breast = system: BT-549 breast
CAKI-1 renal = system: CAKI-1 renal
CCRF-CEM leukemia = system: CCRF-CEM leukemia
COLO 205 colon = system: COLO 205 colon
DU-145 prostate = system: DU-145 prostate
EKVX NSCLC = system: EKVX NSCLC
HCC-2998 colon = system: HCC-2998 colon
HCT-116 colon = system: HCT-116 colon
HCT-15 colon = system: HCT-15 colon
HL-60(TB) leukemia = system: HL-60(TB) leukemia
HOP-62 NSCLC = system: HOP-62 NSCLC
HOP-92 NSCLC = system: HOP-92 NSCLC
HS 578T breast = system: HS 578T breast
HT29 colon = system: HT29 colon
IGROV1 ovarian = system: IGROV1 ovarian
K-562 leukemia = system: K-562 leukemia
KM12 colon = system: KM12 colon
LOX IMVI melanoma = system: LOX IMVI melanoma
M14 melanoma = system: M14 melanoma
MALME-3M melanoma = system: MALME-3M melanoma
MCF7 breast = system: MCF7 breast
MDA-MB-231 breast = system: MDA-MB-231 breast
MDA-MB-435 = system: MDA-MB-435
MDA-MB-468 breast = system: MDA-MB-468 breast
MOLT-4 leukemia = system: MOLT-4 leukemia
NCI-H226 lung = system: NCI-H226 lung
NCI-H23 lung = system: NCI-H23 lung
NCI-H460 lung = system: NCI-H460 lung
NCI-H522 lung = system: NCI-H522 lung
NCI/ADR-RES ovarian = system: NCI/ADR-RES ovarian
OVCAR-3 ovarian = system: OVCAR-3 ovarian
OVCAR-4 ovarian = system: OVCAR-4 ovarian
OVCAR-5 ovarian = system: OVCAR-5 ovarian
OVCAR-8 ovarian = system: OVCAR-8 ovarian
PC-3 prostate = system: PC-3 prostate
RPMI-8226 leukemia = system: RPMI-8226 leukemia
RXF 393 renal = system: RXF 393 renal
SF-268 CNS = system: SF-268 CNS
SF-295 CNS = system: SF-295 CNS
SF-539 CNS = system: SF-539 CNS
SK-MEL-2 melanoma = system: SK-MEL-2 melanoma
SK-MEL-28 melanoma = system: SK-MEL-28 melanoma
SK-MEL-5 melanoma = system: SK-MEL-5 melanoma
SK-OV-3 ovarian = system: SK-OV-3 ovarian
SN12C renal = system: SN12C renal
SNB-19 CNS = system: SNB-19 CNS
SNB-75 CNS = system: SNB-75 CNS
SW-620 colon = system: SW-620 colon
T-47D breast = system: T-47D breast
TK-10 renal = system: TK-10 renal
U251 CNS = system: U251 CNS
UACC-257 melanoma = system: UACC-257 melanoma
UACC-62 melanoma = system: UACC-62 melanoma
UO-31 renal = system: UO-31 renal

## C=C1CC[C@@H]2[C@]3(C)COC(c4ccco4)O[C@@H]3CC[C@@]2(C)[C@@H]1C/C=C1/C(=O)OCC1OC(C)=O (stereo partly specified)
786-0 renal
  GI50: 18 µM
  TGI: 32.8 µM
A498 renal
  GI50: > 100 µM
  TGI: > 100 µM
A549 NSCLC
  GI50: 28.2 µM
  TGI: > 100 µM
ACHN renal
  GI50: 14.9 µM
  TGI: 28.8 µM
BT-549 breast
  GI50: 15 µM
  TGI: 29.1 µM
CAKI-1 renal
  GI50: 15.8 µM
  TGI: 32.2 µM
CCRF-CEM leukemia
  GI50: 2.56 µM
  TGI: 9.9 µM
COLO 205 colon
  GI50: 16 µM
  TGI: 31.3 µM
DU-145 prostate
  GI50: 15.2 µM
  TGI: 29.5 µM
EKVX NSCLC
  GI50: 14.5 µM
  TGI: 31.4 µM
HCC-2998 colon
  GI50: 16.8 µM
  TGI: 31.4 µM
HCT-116 colon
  GI50: 10.8 µM
  TGI: 26 µM
HCT-15 colon
  GI50: 15.6 µM
  TGI: 38.4 µM
HL-60(TB) leukemia
  GI50: 9.35 µM
  TGI: 85.6 µM
HOP-62 NSCLC
  GI50: 21.8 µM
  TGI: 55.7 µM
HOP-92 NSCLC
  GI50: 12.3 µM
  TGI: 45.2 µM
HS 578T breast
  GI50: 26.1 µM
  TGI: > 100 µM
HT29 colon
  GI50: 13.8 µM
  TGI: 30.7 µM
IGROV1 ovarian
  GI50: 16.5 µM
  TGI: 34.2 µM
K-562 leukemia
  GI50: 5.84 µM
  TGI: > 100 µM
KM12 colon
  GI50: 21.7 µM
  TGI: 68.7 µM
LOX IMVI melanoma
  GI50: 11.8 µM
  TGI: 24.1 µM
M14 melanoma
  GI50: 16.3 µM
  TGI: 34.2 µM
MALME-3M melanoma
  GI50: 14.7 µM
  TGI: 29.3 µM
MCF7 breast
  GI50: 12.4 µM
  TGI: 32.4 µM
MDA-MB-231 breast
  GI50: 15 µM
  TGI: 30.9 µM
MDA-MB-435
  GI50: 15.6 µM
  TGI: 37 µM
MDA-MB-468 breast
  GI50: 13.4 µM
  TGI: 26.6 µM
MOLT-4 leukemia
  GI50: 19.6 µM
  TGI: > 100 µM
NCI-H226 lung
  GI50: 16.6 µM
  TGI: 35.1 µM
NCI-H23 lung
  GI50: 17.6 µM
  TGI: 35.2 µM
NCI-H460 lung
  GI50: 18.2 µM
  TGI: 38.6 µM
NCI-H522 lung
  GI50: 13.6 µM
  TGI: 26.7 µM
NCI/ADR-RES ovarian
  GI50: 17 µM
  TGI: 38 µM
OVCAR-3 ovarian
  GI50: 10.8 µM
  TGI: 26.6 µM
OVCAR-4 ovarian
  GI50: 13.5 µM
  TGI: 38.4 µM
OVCAR-5 ovarian
  GI50: 17.6 µM
  TGI: 31.9 µM
OVCAR-8 ovarian
  GI50: 12.8 µM
  TGI: 28.7 µM
PC-3 prostate
  GI50: 13.2 µM
  TGI: 39.6 µM
RPMI-8226 leukemia
  GI50: 3.11 µM
  TGI: 38.1 µM
RXF 393 renal
  GI50: 11.1 µM
  TGI: 24.9 µM
SF-268 CNS
  GI50: 27.9 µM
  TGI: > 100 µM
SF-295 CNS
  GI50: 25.9 µM
  TGI: > 100 µM
SF-539 CNS
  GI50: 14 µM
  TGI: 27 µM
SK-MEL-2 melanoma
  GI50: 14.6 µM
  TGI: 29 µM
SK-MEL-28 melanoma
  GI50: 15.7 µM
  TGI: 29.7 µM
SK-MEL-5 melanoma
  GI50: 15.8 µM
  TGI: 31.3 µM
SK-OV-3 ovarian
  GI50: 57.7 µM
  TGI: > 100 µM
SN12C renal
  GI50: 14.4 µM
  TGI: 30.6 µM
SNB-19 CNS
  GI50: 25.3 µM
  TGI: 84.2 µM
SNB-75 CNS
  GI50: 5.83 µM
  TGI: 49.6 µM
SW-620 colon
  GI50: 9.77 µM
  TGI: 23.8 µM
T-47D breast
  GI50: 18.6 µM
  TGI: 55.1 µM
TK-10 renal
  GI50: 25.9 µM
  TGI: 62.4 µM
U251 CNS
  GI50: 15.2 µM
  TGI: 28.6 µM
UACC-257 melanoma
  GI50: 15.5 µM
  TGI: 32.8 µM
UACC-62 melanoma
  GI50: 13.6 µM
  TGI: 28.8 µM
UO-31 renal
  GI50: 13.2 µM
  TGI: 26 µM
